Results as given in publication PMC3334838 (Chemistry & biology, 2012).

What was measured:
RAW 264.7 cells = assay: Osteoclast differentiation assay; assay type: cell-based, mouse
[1] = tested on: bone marrow-derived macrophages (BMM); assay: Osteoclast differentiation assay; assay type: cell-based, mouse; details: M-CSF and RANKL
[2] = tested on: Rat-2 cells expressing c-Fes-L145P; assay: Soft-agar colony formation, Rat-2 fibroblasts transformed by c-Fes-L145P; assay type: cell-based, rodent
Erk2 [3] = biological target: T1, Erk2 (Homo sapiens, UniProt P28482); assay: Erk2 in vitro kinase assay; assay type: biochemical
T1 sequence (P28482 whole entry): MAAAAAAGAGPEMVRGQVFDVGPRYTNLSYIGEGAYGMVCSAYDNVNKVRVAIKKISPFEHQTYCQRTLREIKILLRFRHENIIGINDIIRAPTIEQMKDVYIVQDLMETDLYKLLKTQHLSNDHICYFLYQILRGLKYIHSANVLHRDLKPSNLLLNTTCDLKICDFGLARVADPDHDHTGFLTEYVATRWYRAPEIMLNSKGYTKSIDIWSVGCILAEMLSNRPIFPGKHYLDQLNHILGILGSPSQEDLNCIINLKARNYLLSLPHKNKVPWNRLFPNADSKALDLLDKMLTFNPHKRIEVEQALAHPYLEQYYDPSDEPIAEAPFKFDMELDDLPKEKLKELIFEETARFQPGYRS

Hck-YF = Hck-YF (Homo sapiens, UniProt P08631, Y522F); assay: Kinase autophosphorylation in transformed Rat-2 cells by immunoblotting, Hck-YF; assay type: cell-based
Sequence of Hck-YF (P08631 22-526 Y522F limits assumed): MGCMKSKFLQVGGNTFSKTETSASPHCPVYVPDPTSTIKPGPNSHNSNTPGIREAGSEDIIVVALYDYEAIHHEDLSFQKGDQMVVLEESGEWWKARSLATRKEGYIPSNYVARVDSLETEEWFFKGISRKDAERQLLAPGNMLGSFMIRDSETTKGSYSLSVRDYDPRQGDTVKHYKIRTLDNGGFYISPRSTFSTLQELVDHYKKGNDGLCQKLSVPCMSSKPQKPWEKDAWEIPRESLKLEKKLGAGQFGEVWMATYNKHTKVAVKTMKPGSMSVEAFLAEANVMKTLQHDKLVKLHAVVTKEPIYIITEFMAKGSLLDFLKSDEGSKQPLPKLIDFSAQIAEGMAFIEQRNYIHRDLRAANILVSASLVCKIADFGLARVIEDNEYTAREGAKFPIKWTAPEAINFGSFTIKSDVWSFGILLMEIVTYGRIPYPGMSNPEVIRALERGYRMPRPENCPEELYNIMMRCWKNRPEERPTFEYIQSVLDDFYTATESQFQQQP

[4] = biological target: Hck-TMYF gatekeeper mutant (Homo sapiens, UniProt P08631, T333M/Y522F); assay type: cell-based
Sequence of Hck-TMYF gatekeeper mutant (P08631 22-526 T333M/Y522F limits assumed): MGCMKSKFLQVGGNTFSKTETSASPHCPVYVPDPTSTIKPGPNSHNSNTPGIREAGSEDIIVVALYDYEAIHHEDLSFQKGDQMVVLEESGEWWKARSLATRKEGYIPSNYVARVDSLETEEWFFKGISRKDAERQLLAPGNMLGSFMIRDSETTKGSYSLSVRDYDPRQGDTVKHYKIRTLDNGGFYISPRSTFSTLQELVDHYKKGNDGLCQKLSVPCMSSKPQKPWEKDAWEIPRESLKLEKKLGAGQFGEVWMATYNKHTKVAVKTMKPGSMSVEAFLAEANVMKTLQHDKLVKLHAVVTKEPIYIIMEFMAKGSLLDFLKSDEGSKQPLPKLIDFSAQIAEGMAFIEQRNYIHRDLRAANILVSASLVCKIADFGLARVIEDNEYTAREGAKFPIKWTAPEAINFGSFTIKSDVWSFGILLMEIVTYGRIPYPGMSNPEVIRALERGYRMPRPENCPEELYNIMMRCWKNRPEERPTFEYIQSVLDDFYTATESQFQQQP

[5] = tested on: Rat-2 cells expressing c-Fes/v-Fps chimera; assay: Soft-agar colony formation, Rat-2 fibroblasts transformed by c-Fes/v-Fps chimera; assay type: cell-based, rodent
Erk2 [6] = biological target: T1, Erk2; assay: KINOMEscan displacement assay, Erk2; assay type: binding; details: 10 μM inhibitor
[7] = tested on: control Rat-2 cells expressing GFP alone; assay: Growth of control Rat-2 cells in monolayer culture; assay type: cell-based, rodent
[8] = tested on: Rat-2 cells transformed by Hck-YF; assay: Soft-agar colony formation, Rat-2 fibroblasts transformed by active Hck; assay type: cell-based, rodent
[9] = Rat2, read-out: inhibition of soft-agar colony formation

## Nc1[nH]nc2nnc(-c3c(-c4ccccc4)nn4ccccc34)cc12 [FR180204]
RAW 264.7 cells; RAW 264.7, 1 μM or 10 μM
  effect on osteoclast differentiation: did not influence

## COc1cc(N2CCC(N3CCN(C)CC3)CC2)ccc1Nc1ncc(Cl)c(Nc2ccccc2S(=O)(=O)C(C)C)n1 [TAE684]
[1]
  IC50 values for inhibition of osteoclast differentiation (in words): submicromolar range
[2]; [9]
  inhibition at 0.1 µM: > 50%
[2]; c-Fes transformants, 1 μM
  soft-agar colony growth: Complete loss
[2]; c-Fes-L145P
  concentration giving complete inhibition of soft-agar colony formation: 600 nM
Erk2 [3]
  potency towards Erk in an in vitro kinase assay: very low potency
Hck-YF
  IC50: > 10000 nM
[4]
  IC50: 685 nM
[5]; [9]
  inhibition at 0.1 µM: > 50%
[5]; c-Fes/v-Fps
  concentration giving complete inhibition of soft-agar colony formation: 400 nM
Erk2 [6]
  displacement score for Erk2: 0.3
[7]; 100 nM
  growth of control Rat-2 cells in monolayer culture: only slightly reduced
[7]; 1 μM, after 72 hrs
  reduction of growth of control Rat-2 cells expressing GFP alone: 50%
[7]; 3 μM
  growth of control Rat-2 cells expressing GFP alone: completely abolished
[8]; 200 nM
  inhibition of Hck-mediated soft-agar colony formation: only minimal inhibition
[8]; Hck transformants, 1 μM
  soft-agar colony growth: Complete loss
RAW 264.7 cells; RAW 264.7, RANKL and VEGF
  inhibition of osteoclast differentiation compared with BMM: Very similar results
